Test results taken from US12421229B2, “Hydropyrido[1,2-α]pyrazine compounds for the treatment of autoimmune disease” (Hoffmann-La Roche Inc., priority 2019, dated 2025).

How the values were obtained:
CYP2C9 = biological target: T1, CYP2C9 (Homo sapiens, UniProt P11712); test: CYP inhibition assay in human liver microsome, CYP2C9; assay type: in vitro ADME; settings: percentage inhibition, substrate Diclofenac 5 μM
T1 construct: tissue BD-Gentest 452117; host or cells: human liver microsomes
Description: This is a high throughput screening assay used for assessment of reversible inhibition of CYP2C9, CYP2D6, and CYP3A4 activity of test compounds in human liver microsome (HLM) in early discovery stage.
10 mM DMSO stock solutions of test compounds were diluted in DMSO to generate 2 mM intermediate stock solution. 250 nL of intermediate stock solution were transferred in duplicate into 3 separate 384 well microtitre plates (assay-ready plates). A mixture of HLM and each substrate was made up. 45 μL of HLM substrate mix was then transferred to each well of an assay ready plate and mixed. The negative (solvent) and positive controls (standard inhibitor for each CYP) were included in each assay ready plate. The assay ready plate was warmed to 37° C. in an incubator over 10 minutes. 5 μL pre-warmed NADPH regenerating system was added to each incubation well to start the reaction. Final incubation volume was 50 μL. The assay plate then was placed back in the 37° C. incubator. After incubation (10 minutes for CYP2D6) for 5 minutes, incubates were quenched by addition of 50 μL 100% acetonitrile containing internal standards (400 ng/mL 13C6-4′-OH-Diclofenac, 20 ng/mL D3-Dextrorphan and 20 ng/mL D4-1′OH-Midazolam). The supernatants were collected for RapidFire/MS/MS analysis.
RapidFire online solid phase extraction/sample injection system (Agilent) coupled with API4000 triple quadrupole mass spectrometer (AB Sciex) were used for sample analysis. The mobile phase composed of acetonitrile and water supplemented with 0.1% formic acid. A C4 solid phase extraction cartridge is used for sample separation. MS detection is achieved in positive ion MRM mode.
Peak areas for substrate, metabolite and internal standard are determined using the RapidFire integrator software (version 3.6.12009.12296). Peak area ratios (PAR) of metabolite and internal standard (stable-labelled metabolite) are then calculated. The measurement window for each experiment is then defined:
PAR (0% activity)=average PAR for all incubations containing concentrated inhibitor;
Par (100% activity)=average PAR for all incubations containing no inhibitor (DMSO controls);
% Activity (test inhibitor)=[PAR(test inhibitor)−PAR(0% activity)/PAR(100% activity)−PAR(0% activity)];
% Inhibition (test inhibitor)=100−% Activity (test inhibitor).

hERG K+ channel = biological target: T2, hERG K+ channel (Homo sapiens, UniProt Q12809); test: hERG channel inhibition assay (patch-clamp, CHOhERG cells); assay type: cell-based; settings: for IC50 / IC20: CHOhERG cells, whole-cell patch-clamp; for IC20: human, CHO cells stably expressing hERG (CHOhERG); for hERG IC20/TLR7 IC50 / hERG IC20/TLR8 IC50 / hERG IC20/TLR9 IC50: safety ratio
T2 construct: expressed in transfected cells; host or cells: CHO (Chinese hamster ovary), CHOhERG
Description: The hERG K^+ channels were cloned in humans and stably expressed in a CHO (Chinese hamster ovary) cell line. CHOhERG cells were used for patch-clamp (voltage-clamp, whole-cell) experiments. Cells were stimulated by a voltage pattern to activate hERG channels and conduct IKhERG currents (rapid delayed outward rectifier potassium current of the hERG channel). After the cells were stabilized for a few minutes, the amplitude and kinetics of IKhERG were recorded at a stimulation frequency of 0.1 Hz, (6 bpm). Thereafter, the test compound was added to the preparation at increasing concentrations. For each concentration, an attempt was made to reach a steady-state effect, usually, this was achieved within 3-10 min at which time the next highest concentration was applied. The amplitude and kinetics of IKhERG are recorded in each concentration of the drug which were compared to the control values (taken as 100%). (references: Redfern W S, Carlsson L, Davis A S, Lynch W G, MacKenzie I, Palethorpe S, Siegl P K, Strang I, Sullivan A T, Wallis R, Camm A J, Hammond T G. 2003; Relationships between preclinical cardiac electrophysiology, clinical QT interval prolongation and torsade de pointes for a broad range of drugs: evidence for a provisional safety margin in drug development. Cardiovasc. Res. 58:32-45, Sanguinetti MC, Tristani-Firouzi M. 2006; hERG potassium channels and cardiac arrhythmia. Nature 440:463-469, Webster R, Leishman D, Walker D. 2002; Towards a drug concentration effect relationship for QT prolongation and torsades de pointes. Curr. Opin. Drug Discov. Devel. 5:116-26).

T2 sequence (Q12809 whole entry): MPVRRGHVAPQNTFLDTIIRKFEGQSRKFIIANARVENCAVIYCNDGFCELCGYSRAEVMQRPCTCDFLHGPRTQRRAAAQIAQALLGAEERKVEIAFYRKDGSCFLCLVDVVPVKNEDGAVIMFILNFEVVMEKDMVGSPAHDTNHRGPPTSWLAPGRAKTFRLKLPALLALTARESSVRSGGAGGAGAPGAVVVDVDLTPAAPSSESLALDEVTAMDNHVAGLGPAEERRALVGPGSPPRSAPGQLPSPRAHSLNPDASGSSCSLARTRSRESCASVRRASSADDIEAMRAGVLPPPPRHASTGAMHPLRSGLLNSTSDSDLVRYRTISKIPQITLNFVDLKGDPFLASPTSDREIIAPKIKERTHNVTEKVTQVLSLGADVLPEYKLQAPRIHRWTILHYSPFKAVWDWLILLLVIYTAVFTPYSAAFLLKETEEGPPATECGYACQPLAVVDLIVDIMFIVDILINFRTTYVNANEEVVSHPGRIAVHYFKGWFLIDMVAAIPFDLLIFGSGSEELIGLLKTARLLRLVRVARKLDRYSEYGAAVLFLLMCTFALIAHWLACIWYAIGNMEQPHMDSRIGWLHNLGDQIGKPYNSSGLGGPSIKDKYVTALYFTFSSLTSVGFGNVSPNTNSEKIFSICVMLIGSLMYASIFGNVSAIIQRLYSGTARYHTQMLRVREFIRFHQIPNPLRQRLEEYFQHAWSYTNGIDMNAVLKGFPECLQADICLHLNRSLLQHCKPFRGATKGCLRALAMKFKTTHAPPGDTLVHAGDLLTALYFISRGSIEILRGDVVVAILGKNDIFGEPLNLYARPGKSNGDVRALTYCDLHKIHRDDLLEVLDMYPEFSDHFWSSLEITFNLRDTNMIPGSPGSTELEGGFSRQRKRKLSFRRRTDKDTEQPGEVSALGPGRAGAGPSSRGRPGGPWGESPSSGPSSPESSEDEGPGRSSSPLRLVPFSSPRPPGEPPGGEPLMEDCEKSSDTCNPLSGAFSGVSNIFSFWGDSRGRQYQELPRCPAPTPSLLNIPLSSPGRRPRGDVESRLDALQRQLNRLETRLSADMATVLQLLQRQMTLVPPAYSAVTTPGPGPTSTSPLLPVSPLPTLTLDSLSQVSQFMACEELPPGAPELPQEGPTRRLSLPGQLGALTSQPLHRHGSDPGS
T1 sequence (P11712 whole entry): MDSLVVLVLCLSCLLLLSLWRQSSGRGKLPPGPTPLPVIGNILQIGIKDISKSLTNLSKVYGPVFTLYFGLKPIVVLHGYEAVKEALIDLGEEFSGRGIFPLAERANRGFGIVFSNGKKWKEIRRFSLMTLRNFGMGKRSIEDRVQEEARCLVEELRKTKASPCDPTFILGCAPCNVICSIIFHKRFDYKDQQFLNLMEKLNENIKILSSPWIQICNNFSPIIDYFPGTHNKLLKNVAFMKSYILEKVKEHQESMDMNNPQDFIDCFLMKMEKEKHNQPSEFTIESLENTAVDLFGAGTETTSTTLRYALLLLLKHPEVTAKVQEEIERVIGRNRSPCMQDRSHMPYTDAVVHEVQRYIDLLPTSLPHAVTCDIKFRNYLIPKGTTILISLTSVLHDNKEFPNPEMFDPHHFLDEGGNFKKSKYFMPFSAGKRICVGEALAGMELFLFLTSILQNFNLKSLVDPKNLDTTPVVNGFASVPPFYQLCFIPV

| SMILES | CYP (%) 2C9 (CYP2C9) [%] | IC50 (hERG K+ channel) [µM] | IC20 (hERG K+ channel) [µM] | hERG IC20/TLR7 IC50 (hERG K+ channel) | hERG IC20/TLR8 IC50 (hERG K+ channel) | hERG IC20/TLR9 IC50 (hERG K+ channel) |
| --- | --- | --- | --- | --- | --- | --- |
| C[C@@H]1CN(c2ccc(C#N)c3ncccc23)C[C@@H]2C[C@H](c3ccc(N4CCNCC4)nc3)CCN21 (stereo in doubt) [Example 2, 5-[(4R,8R)-4-methyl-8-(6-piperazin-1-yl-3-pyridyl)-1,3,4,6,7,8,9,9a-octahydropyrido[1,2-a]pyrazin-2-yl]quinoline-8-carbonitrile] | 6 |  |  |  |  |  |
| CO[C@H]1CN(c2ccc([C@@H]3CCN4[C@@H](C3)CN(c3ccc(C#N)c5ncccc35)C[C@H]4C)cn2)C[C@@H]1N [Example 6, 5-[(4R,8R,9aS)-8-[6-[(3S,4S)-3-amino-4-methoxy-pyrrolidin-1-yl]-3-pyridyl]-4-methyl-1,3,4,6,7,8,9,9a-octahydropyrido[1,2-a]pyrazin-2-yl]quinoline-8-carbonitrile] | −8 | > 20 | 9.2 | 224.4 | 195.7 | 105.7 |
| C[C@@H]1CN(c2ccc(C#N)c3ncccc23)C[C@@H]2C[C@@H](Oc3ccc(N4CCNCC4)cn3)CCN21 [Example 11, 5-[(4R,8S,9aS)-4-methyl-8-[(5-piperazin-1-yl-2-pyridyl)oxy]-1,3,4,6,7,8,9,9a-octahydropyrido[1,2-a]pyrazin-2-yl]quinoline-8-carbonitrile] | 0 | > 20 | > 10 | >217.4 | >666.6 | >111.1 |
| CO[C@H]1CN(c2ccc([C@@H]3CCN4[C@@H](C3)CN(c3ccc(C#N)c5ncccc35)C[C@H]4C)cn2)C[C@H]1N [Example 12, 5-[(4R,8R,9aS)-8-[6-[(3R,4S)-3-amino-4-methoxy-pyrrolidin-1-yl]-3-pyridyl]-4-methyl-1,3,4,6,7,8,9,9a-octahydropyrido[1,2-a]pyrazin-2-yl]quinoline-8-carbonitrile] | 14.5 |  |  |  |  |  |
| C[C@@H]1CN(c2ccc(C#N)c3ncccc23)C[C@@H]2C[C@H](c3ccc(N4C[C@@H](N)[C@@H](F)C4)nc3)CCN21 [Example 19, 5-[(4R,8R,9aS)-8-[6-[(3R,4S)-3-amino-4-fluoro-pyrrolidin-1-yl]-3-pyridyl]-4-methyl-1,3,4,6,7,8,9,9a-octahydropyrido[1,2-a]pyrazin-2-yl]quinoline-8-carbonitrile] | −3.5 |  |  |  |  |  |
| C[C@@H]1CN(c2ccc(C#N)c3ncccc23)C[C@@H]2C[C@H](Nc3ccc([C@H]4CNCCO4)cc3)CCN21 [Example 20, 5-[(4R,8R,9aS)-4-methyl-8-[4-[(2S)-morpholin-2-yl]anilino]-1,3,4,6,7,8,9,9a-octahydropyrido[1,2-a]pyrazin-2-yl]quinoline-8-carbonitrile] |  | > 20 | > 10 | >769.2 | >200 | >200 |
| [2H]c1ccc2c(N3C[C@@H]4C[C@H](Nc5ccc(C[C@H]6CNCCO6)cc5)CCN4[C@H](C)C3)ccc(C#N)c2n1 [Example 34, 5-[(4R,8R,9aS)-4-methyl-8-[4-[[(2S)-morpholin-2-yl]methyl]anilino]-1,3,4,6,7,8,9,9a-octahydropyrido[1,2-a]pyrazin-2-yl]-2-deuterio-quinoline-8-carbonitrile] | −20 | > 20 | > 10 | >212.7 | >250 | >175.4 |

Further lines, with some results ahead:

| CYP (%) 2C9 (CYP2C9) [%] | SMILES | IC50 (hERG K+ channel) [µM] | IC20 (hERG K+ channel) [µM] | hERG IC20/TLR7 IC50 (hERG K+ channel) | hERG IC20/TLR8 IC50 (hERG K+ channel) | hERG IC20/TLR9 IC50 (hERG K+ channel) |
| --- | --- | --- | --- | --- | --- | --- |
| −6.5 | C[C@@H]1CN(c2ccc(C#N)c3ncccc23)C[C@@H]2C[C@H](N3CC(c4ccc(N5CCNCC5)cc4)C3)CCN21 [Example 9, 5-[(4R,8R,9aS)-4-methyl-8-[3-(4-piperazin-1-ylphenyl)azetidin-1-yl]-1,3,4,6,7,8,9,9a-octahydropyrido[1,2-a]pyrazin-2-yl]quinoline-8-carbonitrile] | > 20 | > 10 | >370.4 | >277.8 | >312.5 |
| −1 | CO[C@@H]1CN(c2ccc([C@@H]3CCN4[C@@H](C3)CN(c3ccc(C#N)c5ncccc35)C[C@H]4C)cn2)C[C@H]1N [Example 14, 5-[(4R,8R,9aS)-8-[6-[(3R,4R)-3-amino-4-methoxy-pyrrolidin-1-yl]-3-pyridyl]-4-methyl-1,3,4,6,7,8,9,9a-octahydropyrido[1,2-a]pyrazin-2-yl]quinoline-8-carbonitrile] |  |  |  |  |  |
| 3 | C[C@@H]1CN(c2ccc(C#N)c3ncccc23)C[C@@H]2C[C@H](Nc3ccc(C[C@@H]4CNCCO4)cc3)CCN21 [Example 21, 5-[(4R,8R,9aS)-4-methyl-8-[4-[[(2R)-morpholin-2-yl]methyl]anilino]-1,3,4,6,7,8,9,9a-octahydropyrido[1,2-a]pyrazin-2-yl]quinoline-8-carbonitrile] | > 20 | > 10 | >500 | >185.2 | >116.3 |
| 4 | C[C@@H]1CN(c2ccc(C#N)c3ncccc23)C[C@@H]2C[C@H](c3ccc([C@@H]4CNCCO4)cc3)CCN21 [Example 27, 5-[(4R,8R,9aS)-4-methyl-8-[4-[(2R)-morpholin-2-yl]phenyl]-1,3,4,6,7,8,9,9a-octahydropyrido[1,2-a]pyrazin-2-yl]quinoline-8-carbonitrile] |  |  |  |  |  |
| 4.5 | [2H]c1ccc2c(N3C[C@@H]4C[C@H](N5CCN(c6ccncc6)CC5)CCN4[C@H](C)C3)ccc(C#N)c2n1 [Example 37, 5-[(4R,8R,9aS)-4-methyl-8-[4-(4-pyridyl)piperazin-1-yl]-1,3,4,6,7,8,9,9a-octahydropyrido[1,2-a]pyrazin-2-yl]-2-deuterio-quinoline-8-carbonitrile] |  |  |  |  |  |
